Reference: paper PMC12281424, “A Rac-specific competitive inhibitor of guanine nucleotide binding reduces metastasis in triple-negative breast cancer” (Cell Reports Medicine, 2025)

Assays:
CHO = experiment: Micronucleus assay (HCA); type: cell-based
From the text: Data S4. Micronucleus assay-A41.
Test Scored % Cytotox % Cytotox % Micronucleated t-Test Test
Concentr. Cells Index CBPI NumbersCell Cells p-value Result […]
Micronucleus (CHO - S9, HCA)

ACK1(h) = ACK1(h) (Homo sapiens, UniProt Q07912); experiment: Kinase Profiler; type: biochemical
Procedure: (§1) The kinase profiler was performed by the company Eurofins (Discovery, Panlab and Cerep).

ALK1(h) = ALK1(h) (Homo sapiens, UniProt P37023); experiment: Kinase Profiler; type: biochemical
Procedure: as §1

BrSK1(h) = BrSK1(h) (Homo sapiens, UniProt Q8TDC3); experiment: Kinase Profiler; type: biochemical
Procedure: (§2) Blood cell counts, kinase profiler, safety screen, bacterial cytotoxicity, Ames, micronucleus assays were performed by the company Eurofins (France). The kinase profiler was performed by the company Eurofins (Discovery, Panlab and Cerep).

CaMKIIδ(h) = CaMKIIδ(h) (Homo sapiens, UniProt Q13557); experiment: Kinase Profiler; type: biochemical
Procedure: as §1

CDKL3(h) = CDKL3(h) (Homo sapiens, UniProt Q8IVW4); experiment: Kinase Profiler; type: biochemical
Procedure: as §1

CK1α(h) = CK1α(h) (Homo sapiens, UniProt P48729); experiment: Kinase Profiler; type: biochemical
Procedure: as §2

FGFR1(h) = FGFR1(h) (Homo sapiens, UniProt P11362); experiment: Kinase Profiler; type: biochemical
Procedure: as §1

Flt4(h) = Flt4(h) (Homo sapiens, UniProt P35916); experiment: Kinase Profiler; type: biochemical
Procedure: as §1

GRK6(h) = GRK6(h) (Homo sapiens, UniProt P43250); experiment: Kinase Profiler; type: biochemical
Procedure: as §2

ICK(h) = ICK(h) (Homo sapiens, UniProt Q9UPZ9); experiment: Kinase Profiler; type: biochemical
Procedure: as §1

Met(Y1248C)(h) = Met(Y1248C)(h) (Homo sapiens, UniProt P08581, Y1230C); experiment: Kinase Profiler; type: biochemical
Procedure: as §1

PDK1(h) = PDK1(h) (Homo sapiens, UniProt O15530); experiment: Kinase Profiler; type: biochemical
Procedure: as §2

PhKγ1(h) = PhKγ1(h) (Homo sapiens, UniProt Q16816); experiment: Kinase Profiler; type: biochemical
Procedure: as §2

SGK2(h) = SGK2(h) (Homo sapiens, UniProt Q9HBY8); experiment: Kinase Profiler; type: biochemical
Procedure: as §1

TYK2(h) = TYK2(h) (Homo sapiens, UniProt P29597); experiment: Kinase Profiler; type: biochemical
Chain of TYK2(h) (P29597 whole entry): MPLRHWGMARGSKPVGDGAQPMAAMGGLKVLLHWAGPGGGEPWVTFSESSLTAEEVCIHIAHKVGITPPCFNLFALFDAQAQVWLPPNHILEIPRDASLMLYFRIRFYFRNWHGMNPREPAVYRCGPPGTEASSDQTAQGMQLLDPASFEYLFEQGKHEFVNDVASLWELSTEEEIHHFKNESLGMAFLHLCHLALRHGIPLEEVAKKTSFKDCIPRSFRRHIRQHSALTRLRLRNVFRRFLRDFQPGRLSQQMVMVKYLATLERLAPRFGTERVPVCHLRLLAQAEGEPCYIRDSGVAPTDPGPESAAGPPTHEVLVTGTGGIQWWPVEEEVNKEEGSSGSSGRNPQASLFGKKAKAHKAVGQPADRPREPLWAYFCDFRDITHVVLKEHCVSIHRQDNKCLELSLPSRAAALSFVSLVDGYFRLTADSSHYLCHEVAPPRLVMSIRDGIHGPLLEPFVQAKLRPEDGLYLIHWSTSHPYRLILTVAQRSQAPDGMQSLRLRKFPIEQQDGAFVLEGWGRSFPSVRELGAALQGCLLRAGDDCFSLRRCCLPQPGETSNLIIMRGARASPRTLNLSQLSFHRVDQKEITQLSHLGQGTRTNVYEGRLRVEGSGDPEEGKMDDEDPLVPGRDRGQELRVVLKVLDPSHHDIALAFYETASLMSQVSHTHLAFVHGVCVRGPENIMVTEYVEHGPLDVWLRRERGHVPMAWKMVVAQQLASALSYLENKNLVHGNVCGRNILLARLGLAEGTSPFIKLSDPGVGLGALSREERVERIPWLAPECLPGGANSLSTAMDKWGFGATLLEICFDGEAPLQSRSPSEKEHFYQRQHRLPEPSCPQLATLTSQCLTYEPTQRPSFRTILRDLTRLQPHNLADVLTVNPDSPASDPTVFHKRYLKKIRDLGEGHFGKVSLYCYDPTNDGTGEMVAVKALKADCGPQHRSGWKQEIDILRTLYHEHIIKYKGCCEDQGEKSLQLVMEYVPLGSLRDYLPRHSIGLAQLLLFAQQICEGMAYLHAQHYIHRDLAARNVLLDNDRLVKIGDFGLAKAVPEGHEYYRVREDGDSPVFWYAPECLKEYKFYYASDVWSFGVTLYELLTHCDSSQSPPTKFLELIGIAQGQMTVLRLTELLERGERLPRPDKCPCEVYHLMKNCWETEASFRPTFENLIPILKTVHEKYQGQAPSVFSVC
Procedure: as §2

Chain of CDKL3(h) (Q8IVW4 whole entry): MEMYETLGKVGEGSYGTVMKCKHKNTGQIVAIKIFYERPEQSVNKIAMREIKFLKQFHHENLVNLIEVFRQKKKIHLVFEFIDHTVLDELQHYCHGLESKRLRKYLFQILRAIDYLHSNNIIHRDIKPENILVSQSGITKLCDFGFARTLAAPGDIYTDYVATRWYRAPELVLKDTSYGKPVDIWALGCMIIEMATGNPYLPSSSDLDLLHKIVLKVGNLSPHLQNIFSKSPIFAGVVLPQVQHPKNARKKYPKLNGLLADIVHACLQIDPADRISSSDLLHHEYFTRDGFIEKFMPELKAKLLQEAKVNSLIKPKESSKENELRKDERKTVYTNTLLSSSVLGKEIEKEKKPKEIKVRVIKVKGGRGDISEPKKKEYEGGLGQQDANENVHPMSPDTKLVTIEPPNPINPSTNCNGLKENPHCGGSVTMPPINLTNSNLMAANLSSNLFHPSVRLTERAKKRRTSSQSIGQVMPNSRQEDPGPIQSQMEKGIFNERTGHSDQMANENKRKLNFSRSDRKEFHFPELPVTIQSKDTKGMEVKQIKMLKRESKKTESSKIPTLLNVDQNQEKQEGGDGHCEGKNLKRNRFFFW
Chain of PhKγ1(h) (Q16816 whole entry): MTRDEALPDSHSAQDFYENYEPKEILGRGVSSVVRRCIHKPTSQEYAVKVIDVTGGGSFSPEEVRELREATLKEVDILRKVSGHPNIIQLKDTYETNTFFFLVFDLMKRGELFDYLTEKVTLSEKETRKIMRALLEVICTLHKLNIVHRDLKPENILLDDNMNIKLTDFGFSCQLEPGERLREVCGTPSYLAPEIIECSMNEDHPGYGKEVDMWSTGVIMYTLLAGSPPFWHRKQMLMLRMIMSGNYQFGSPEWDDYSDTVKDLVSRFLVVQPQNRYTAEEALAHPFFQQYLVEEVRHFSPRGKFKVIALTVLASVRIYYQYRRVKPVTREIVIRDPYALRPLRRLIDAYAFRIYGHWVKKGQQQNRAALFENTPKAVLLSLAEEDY
Chain of PDK1(h) (O15530 whole entry): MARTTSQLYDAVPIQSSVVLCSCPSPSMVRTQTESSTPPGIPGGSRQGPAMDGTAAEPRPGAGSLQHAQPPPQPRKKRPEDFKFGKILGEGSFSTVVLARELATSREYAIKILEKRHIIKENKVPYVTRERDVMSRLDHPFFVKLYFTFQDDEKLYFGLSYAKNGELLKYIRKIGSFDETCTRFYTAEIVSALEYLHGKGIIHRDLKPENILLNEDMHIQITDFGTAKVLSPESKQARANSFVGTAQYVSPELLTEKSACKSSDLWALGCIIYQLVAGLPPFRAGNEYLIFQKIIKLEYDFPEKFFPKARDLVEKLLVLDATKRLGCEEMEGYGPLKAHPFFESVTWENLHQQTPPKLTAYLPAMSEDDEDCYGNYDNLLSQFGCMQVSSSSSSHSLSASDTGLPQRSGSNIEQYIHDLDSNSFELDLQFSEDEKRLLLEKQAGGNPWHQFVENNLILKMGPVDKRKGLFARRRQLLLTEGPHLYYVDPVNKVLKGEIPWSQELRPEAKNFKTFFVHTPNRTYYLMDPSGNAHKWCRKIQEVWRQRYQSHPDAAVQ
Chain of ICK(h) (Q9UPZ9 whole entry): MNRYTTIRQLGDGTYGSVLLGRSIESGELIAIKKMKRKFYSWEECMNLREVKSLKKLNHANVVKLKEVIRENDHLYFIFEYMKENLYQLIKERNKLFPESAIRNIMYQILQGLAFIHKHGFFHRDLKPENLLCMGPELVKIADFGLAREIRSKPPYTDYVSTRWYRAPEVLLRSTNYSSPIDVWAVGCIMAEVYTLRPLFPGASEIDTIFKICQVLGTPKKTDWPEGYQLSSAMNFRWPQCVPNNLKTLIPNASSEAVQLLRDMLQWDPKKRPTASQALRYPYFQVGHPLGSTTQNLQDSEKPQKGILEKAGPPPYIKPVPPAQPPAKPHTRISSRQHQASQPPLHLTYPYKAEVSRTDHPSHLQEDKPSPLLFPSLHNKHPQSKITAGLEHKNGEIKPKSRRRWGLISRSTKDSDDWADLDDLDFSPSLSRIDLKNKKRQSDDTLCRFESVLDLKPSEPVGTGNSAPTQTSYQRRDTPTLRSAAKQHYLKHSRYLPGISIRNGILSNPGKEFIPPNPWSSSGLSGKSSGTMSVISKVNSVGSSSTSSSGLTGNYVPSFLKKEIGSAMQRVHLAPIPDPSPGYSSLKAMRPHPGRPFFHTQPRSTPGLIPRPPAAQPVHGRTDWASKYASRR
Chain of CaMKIIδ(h) (Q13557 whole entry): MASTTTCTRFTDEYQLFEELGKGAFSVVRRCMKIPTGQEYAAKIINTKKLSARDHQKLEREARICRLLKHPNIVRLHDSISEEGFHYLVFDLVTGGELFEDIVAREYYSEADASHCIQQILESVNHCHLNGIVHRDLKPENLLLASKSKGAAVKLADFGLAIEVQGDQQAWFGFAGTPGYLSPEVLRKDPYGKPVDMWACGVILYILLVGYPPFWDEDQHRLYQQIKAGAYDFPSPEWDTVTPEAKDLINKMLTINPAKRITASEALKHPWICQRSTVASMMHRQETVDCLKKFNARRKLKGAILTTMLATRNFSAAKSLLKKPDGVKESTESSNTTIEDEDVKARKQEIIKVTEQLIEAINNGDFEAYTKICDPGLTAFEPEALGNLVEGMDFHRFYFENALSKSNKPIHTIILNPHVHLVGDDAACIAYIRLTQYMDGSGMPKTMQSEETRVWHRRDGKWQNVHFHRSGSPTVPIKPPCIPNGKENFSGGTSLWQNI
Chain of CK1α(h) (P48729 whole entry): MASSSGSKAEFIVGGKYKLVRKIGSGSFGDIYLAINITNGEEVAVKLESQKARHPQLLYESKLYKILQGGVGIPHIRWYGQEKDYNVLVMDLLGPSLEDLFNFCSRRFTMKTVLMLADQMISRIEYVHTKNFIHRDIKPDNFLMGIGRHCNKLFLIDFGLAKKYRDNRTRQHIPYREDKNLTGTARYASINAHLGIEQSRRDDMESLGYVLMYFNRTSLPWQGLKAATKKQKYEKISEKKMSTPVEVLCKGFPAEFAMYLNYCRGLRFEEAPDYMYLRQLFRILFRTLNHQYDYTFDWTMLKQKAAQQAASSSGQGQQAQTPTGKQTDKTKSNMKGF
Chain of ALK1(h) (P37023 22-503): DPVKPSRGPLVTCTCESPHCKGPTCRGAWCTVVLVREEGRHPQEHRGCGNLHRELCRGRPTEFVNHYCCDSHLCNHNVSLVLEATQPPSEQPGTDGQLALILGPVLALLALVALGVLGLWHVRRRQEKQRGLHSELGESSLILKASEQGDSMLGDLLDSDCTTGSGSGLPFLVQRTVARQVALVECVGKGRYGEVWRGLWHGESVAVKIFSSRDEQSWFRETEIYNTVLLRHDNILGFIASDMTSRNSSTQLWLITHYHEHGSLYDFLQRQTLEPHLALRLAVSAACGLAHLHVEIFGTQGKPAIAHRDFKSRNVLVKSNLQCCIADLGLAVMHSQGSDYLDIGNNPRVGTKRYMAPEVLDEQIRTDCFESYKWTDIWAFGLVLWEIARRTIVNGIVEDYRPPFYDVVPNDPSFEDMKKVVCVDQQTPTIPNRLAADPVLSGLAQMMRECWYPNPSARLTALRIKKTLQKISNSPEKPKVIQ

Structure (SMILES): COc1ccc(OC)c(NS(=O)(=O)c2ccc(NC(=O)CCSc3ccc(C)cc3)cc2)c1 [Compound A41]
- % Cytotox Cell Numbers (CHO; - S9, 1.3E-04 M): 64.6%
- % Cytotox Index CBPI (CHO; - S9, 1.3E-04 M): 72.8%
- % Micronucleated Cells (CHO; - S9, 1.3E-04 M): 13.39%
- % Cytotox Cell Numbers (CHO; - S9, 1.6E-05 M): 26.4%
- % Cytotox Index CBPI (CHO; - S9, 1.6E-05 M): -23.9%
- % Micronucleated Cells (CHO; - S9, 1.6E-05 M): 2.04%
- % Cytotox Cell Numbers (CHO; - S9, 2.5E-04 M): 73.6%
- % Cytotox Index CBPI (CHO; - S9, 2.5E-04 M): 73.8%
- % Micronucleated Cells (CHO; - S9, 2.5E-04 M): 14.40%
- % Cytotox Cell Numbers (CHO; - S9, 3.1E-05 M): 42.0%
- % Cytotox Index CBPI (CHO; - S9, 3.1E-05 M): 8.1%
- % Micronucleated Cells (CHO; - S9, 3.1E-05 M): 3.12%
- % Cytotox Cell Numbers (CHO; - S9, 6.3E-05 M): 52.5%
- % Cytotox Index CBPI (CHO; - S9, 6.3E-05 M): 65.8%
- % Micronucleated Cells (CHO; - S9, 6.3E-05 M): 6.96%
- % Cytotox Cell Numbers (CHO; - S9, 7.8E-06 M): 14.3%
- % Cytotox Index CBPI (CHO; - S9, 7.8E-06 M): -21.4%
- % Micronucleated Cells (CHO; - S9, 7.8E-06 M): 1.13%
- Activity(%) (ACK1(h)): 103%
- Activity(%) (ALK1(h)): 102%
- Activity(%) (BrSK1(h)): 86%
- Activity(%) (CaMKIIδ(h)): 92%
- Activity(%) (CDKL3(h)): 103%
- Activity(%) (CK1α(h)): 102%
- Activity(%) (FGFR1(h)): 83%
- Activity(%) (Flt4(h)): 92%
- Activity(%) (GRK6(h)): 100%
- Activity(%) (ICK(h)): 77%
- Activity(%) (Met(Y1248C)(h)): 118%
- Activity(%) (PDK1(h)): 107%
- Activity(%) (PhKγ1(h)): 102%
- Activity(%) (SGK2(h)): 117%
- Activity(%) (TYK2(h)): 108%
